pEC50: −log10 of the molar value.
system: HCV 1b-377-neo replicon cells; assay: HCV replicon assay, wild-type cells; assay type: cell-based; conditions: Hepatitis C virus, read-out: EC50 against the HCV 1b genotype (Activity)
Method: An HCV Replion assay was utilized in the present disclosure, and was prepared, conducted and validated as described in commonly owned PCT/US2006/022197 and in O'Boyle et. al. Antimicrob Agents Chemother. 2005 April; 49(4): 1346-53.
HCV 1b-377-neo replicon cells were used to test representative compounds described within this disclosure as were cells resistant to compound A due to a Y2065H mutation in NS5A (described in application PCT/US2006/022197). The compounds tested were determined to have an approximately 10-fold less inhibitory activity on cells resistant to compound A than wild-type cells indicating a related mechanism of action between the two compound series. Thus, the compounds can be effective to be effective to inhibit the function of the HCV NS5A protein and are understood to be as effective in combinations as previously described in application PCT/US2006/022197 and commonly owned WO/04014852. Further, the compounds are effective against the HCV 1b genotype. It should also be understood that the compounds of the present disclosure can inhibit multiple genotypes of HCV. […] Ranges are as follows: A=1-10 μM; B=100-999 nM; C=1-99 nM; and D=10-999 pM.

Row | SMILES | pEC50
1 | COC(=O)N[C@@H](C(=O)N1CCC[C@H]1c1cc(-c2ccc(-c3ccc(-c4cnc([C@@H]5CCCN5C(=O)[C@H](NC(=O)OC)c5ccccc5)[nH]4)cc3)cc2)n[nH]1)c1ccccc1 [Example 31] | 9.00 to 11.00
2 | CN(C)[C@@H](C(=O)N1CCC[C@H]1c1cc(-c2ccc(-c3ccc(-c4cnc([C@@H]5CCCN5C(=O)[C@@H](c5ccccc5)N(C)C)[nH]4)cc3)cc2)n[nH]1)c1ccccc1 [Example 32] | 9.00 to 11.00
3 | COC(=O)N[C@@H](C(=O)N1CCC[C@H]1c1ncc(-c2ccc(-c3ccc(-c4nnc([C@@H]5CCCN5C(=O)[C@H](NC(=O)OC)c5ccccc5)[nH]4)cc3)cc2)[nH]1)c1ccccc1 [Example 33] | 9.00 to 11.00
4 | COC(=O)N[C@@H](C(=O)N1CCC[C@H]1c1nnc(-c2ccc(-c3ccc(-c4nnc([C@@H]5CCCN5C(=O)[C@H](NC(=O)OC)c5ccccc5)[nH]4)cc3)cc2)[nH]1)c1ccccc1 [Example 34] | 9.00 to 11.00
5 | CN(C)[C@@H](C(=O)N1CCC[C@H]1c1nnc(-c2ccc(-c3ccc(-c4nnc([C@@H]5CCCN5C(=O)[C@@H](c5ccccc5)N(C)C)[nH]4)cc3)cc2)[nH]1)c1ccccc1 [Example 35] | 7.00 to 9.00
6 | COC(=O)N[C@H](C(=O)N1CCC[C@H]1c1cnc(-c2ccc(-c3ccc(-c4cnc([C@@H]5CCCN5C(=O)[C@@H](NC(=O)OC)[C@@H](C)OC)o4)cc3)cc2)[nH]1)[C@@H](C)OC [Example 38] | 9.00 to 11.00

same assay, conditions: read-out: EC50 against the HCV 1b genotype (Activity)

Row | SMILES | pEC50
7 | COC(=O)NC(C(=O)N1CCCC1c1cc(-c2ccc(-c3ccc(-c4cc(C5CCCN5C(=O)C(NC(=O)OC)c5ccccc5)n[nH]4)cc3)cc2)[nH]n1)c1ccccc1 [Example 30, Dimethyl-(1R,1′R)-2,2′-((2S,2′S)-2,2′-(5,5′-(biphenyl-4,4′-diyl)bis(1H-pyrazole-5,3-diyl))bis(pyrrolidine-2,1-diyl))bis(2-oxo-1-phenylethane-2,1-diyl)dicarbamate] | 7.00 to 9.00

Source: US7741347B2, “Hepatitis C virus inhibitors” (Bristol-Myers Squibb Company, priority 2007, dated 2010)
